Results as given in patent publication EP1598069A2, “Pharmaceutical combination of ethinylestradiol and drospirenone for use as a contraceptive” (Schering Aktiengesellschaft, priority 1999, dated 2001).

Assays:
[1] = human, in vivo, po
Procedure: 42 healthy women between 18 and 35 years of age were included in an open-label crossover study after their informed consent had been obtained. The aim of the study was to investigate the relative bioavailability of drospirenone and ethinylestradiol from a tablet formulation containing 3 mg drospirenone and 0.03 mg ethinylestradiol with reference to an oral suspension containing 6 mg of drospirenone and 0.06 mg ethinylestradiol per vial.
The bioavailability was determined using serum concentrations of each active agent as parameters.

[2] = Solubility in water and aqueous buffers (statement); assay type: physicochemical; conditions: drospirenone: in water and aqueous buffers at various pH values
[3] = Chemical stability under acid and alkaline conditions (statement); assay type: physicochemical
[4] = Absolute bioavailability of drospirenone after oral administration; assay type: in vivo, women

Row | Structure (SMILES) | relative bioavailability [1] [%] | solubility [2] | stability under acid conditions ([3]; acid conditions) | stability under alkaline conditions ([3]; alkaline conditions) | bioavailability ([4]; human, in vivo, oral administration of a microcrystalline suspension containing 3.13 mg drospirenone to 6 postmenopausal women) [%] | absolute bioavailability ([4]; oral administration of 2 mg drospirenone to 8 young healthy women)
1 | C[C@]12CCC(=O)C=C1[C@@H]1C[C@@H]1[C@H]1[C@@H]3[C@@H]4C[C@@H]4[C@@]4(CCC(=O)O4)[C@@]3(C)CC[C@@H]12 [drospirenone, 6β,7β;15β,16β-dimethylene-3-oxo-17α-pregn-4-ene-21,17-carbolactone] | 107 | sparingly soluble | rearranged to an inactive isomer | hydrolysed | 85 | 76%±13%
2 | C#C[C@]1(O)CC[C@H]2[C@@H]3CCc4cc(O)ccc4[C@H]3CC[C@@]21C [ethinylestradiol, 17α-ethinylestradiol] | 117 | sparingly soluble |  |  |  | 
